Source: US20230255946A1 (Pure Tech LYT 100, Inc., priority 2020, published 2023)
“Also recorded” adds a separate entry of the source.

Tests used:
[1] = Food Effect Study Part 2 (Cohort 5), single 500 mg dose fed vs fasted; assay type: in vivo
Protocol: The comparison will be based on Day 1, Day 2 and Day 3 PK plasma samples after the first dose of study drug on Day 1 under fast and fed conditions of Part 2.
Subjects will be admitted to the CRU on Day -1 and will fast overnight for at least 10 h.
Comparison of the PK parameters in the fed and fasted states will be performed, and analysis of PK by gender may be performed if the data allow.

[2] = human, in vivo
Protocol: All Part 1 cohorts will be dosed every 12 hours with food for 5 days.
During the treatment period (Day 1 through Day 5), participants will be administered their assigned study medication BID, every 12 h ± 0.25 h (with approximately 240 mL of non-carbonated water), 30 minutes after the start of consumption of their standardised breakfast or dinner (12 h apart). A standardised lunch will be served ≥ 4 h post breakfast and ≥ 4 h prior to dinner. An evening snack will be served ≥ 3 h following evening study medication administration. No additional fluids will be allowed during the 1 h pre- and post-doses. On Day 6, subjects will replicate mealtimes as scheduled on Day 1-5.
In Part 1, blood samples (4 mL each) for PK will be collected for Cohorts 1, 2, 3, 4, and 6 at specified times (hours) at each as follows: • Day 1 and Day 5: 0 (pre-dose), 0.5, 1, 1.5, 2, 2.5, 3, 3.5, 4, 6, 8, 12 (pre-dose), 13, 14, 15, 16, 18 h • Day 2, Day 3 and Day 4: 0 (pre-morning-dose) and 12 h (pre-evening-dose) • Day 6: 12, 18, 24 and 36 h post-last dose • Day 7: 48 h (post-last dose)
Pharmacokinetics for Day 1 to 3 in Part 2 (fed state) will be compared to PK for Day 1 to Day 3 in Part 2 (fasted state). Plasma PK parameters (non-compartmental or compartmental analysis as appropriate) will include, but are not limited to: • Following single dose: Tmax, tlag, Cmax, AUC0-4, AUC0-last, t½, AUC0-inf, lambda z, %AUCext, CL/F, Vz/F, Cmax/D, AUC0-last/D, AUC0-inf/D and MRT (D is dose) • After repeated doses: Ctrough, Ctrough/D • Following repeated doses on last day: Tmax, Cmax, Cavg, tlag, t½, AUC0-4, AUC0-last, AUC0-inf, lambda z, %AUCext, CLss/F, Vzss/F, MRT, PTF, Rac(AUC), Rac(Cmax), Cmax/D, AUClast/D, AUC0-inf/D and Rac (accumulation ratio)
All cohorts (n=6 each) were dosed every 12 hours with food for 5 days at either 100, 250, 500, or 750 mg BID. […] Following processing, the samples were analyzed by HPLC on a Phenomenex Luna PFP(2), 3 µm, 50 x 2.0 mm column, and the eluates were monitored by an API4000 MS/MS detector in positive MRM mode. The data were acquired and processed by the data acquisition system Analyst® (Sciex).

[3] = male, Sprague Dawley, rat, in vivo, 28 days
Protocol: The protocol was amended to add additional TK male animals in Group 6 for Day 1 collection of TK samples at 875 mg/kg.
Blood samples were collected from 3 subsets of 3 animals/sex on Day 1 and Day 28 at predose, 0.25, 0.5, 1, 2, 4, 8 and 24 hours (hr) post-dose for groups 2 to 6 and from one subset of 3 animals/sex at 0.25 hr post-dose for the vehicle group (group 1). […] Non-compartmental analysis (NCA) of plasma concentration data was conducted using Phoenix® WinNonlin®, version 8.0.

[4] = 200 mg SD-559 (pirfenidone) BID, Huang et al.; in ng/mL; cited from earlier work
NASH mice = assay: NASH mouse model (streptozotocin and high fat diet), liver histology; assay type: in vivo
Source text: Non-alcoholic steatohepatitis (NASH) is characterized by lobular inflammation, hepatocyte ballooning and degeneration progressing to liver fibrosis. […] In addition, nine non-NASH mice were fed with a normal diet and monitored.

L929 cells [5] = assay: Survival of L929 cells (MTT); assay type: cell-based; settings: 500 µM, 72 hrs
Protocol: Five thousand L929 cells were plated in completed DMEN and incubated until confluency for 3 days. Medium was removed and complete DMEM containg Prolin (20 µg/ml) and ascorbic acid (10 uM) was added. […] 100 µL of medium was removed, 20 µL MTT solution was added for 4 hrs, then 100 µl of DMSO was added, and absorbance of developed dark pink color was determined at […].

L929 cells [6] = assay: TGF-induced collagen synthesis in L929 cells, 6-wells (SIRCOL); assay type: cell-based; settings: 500 µM
Protocol: 100,000 L929 cells were plated in complete DMEN and incubated until confluency for 3 days. Medium was removed and complete DMEM containg Prolin (20 µg/ml) and ascorbic acid (10 µM) was added. […] Cells were further incubated for 72 hrs. Supernatant was removed, cells were washed with cold PBS, 1 ml SIRCOL reagent was added onto the cells and cells were scraped off, samples were shaken for 5 h.at RT, centrifuged at 10.000 rpm for 5 min, supernatant was removed, pellet was dissolved in 0.5 M acetic acid to remove unbound dye, and re-centrifuged at 10.000 rpm for 5 min, supernatant was removed and final pelet was dissolved in 1 ml 0.5 M NaOH, shaken at RT for 5 h, 100 µl of resulted solution was placed in 96-well and O.D was determined at 600.

L929 cells [7] = assay: TGF-induced collagen synthesis in L929 cells, 96-well plate format (SIRCOL); assay type: cell-based; settings: 500 µM
Protocol: Five thousand L929 cells were plated in complete DMEN and incubated until confluency for 3 days. Medium was removed and complete DMEM containg Prolin (20 µg/ml) and ascorbic acid (10 µM) was added. […] Cells were further incubated for 72 hrs. Supernatant was removed, 0.5% gluteraldehyde was added for 30 min at RT, removed, washed 3X with ddwater, 0.5 M acetic acid was added for 30 min at RT, removed, washed with water, air dried and 100 µl SIRCOL dye was added for 5 h at RT. Dye was removed, plate was washed extensively under running water, air dried and 200 µl of 0.5 M NaOH was added, plates were shaken at RT for 1 h, and OD was determined at 600 nm.

L929 cells [8] = assay: TGF-induced soluble collagen synthesis in L929 cells (ELISA); assay type: cell-based; settings: 500 µM
Protocol: Five thousand L929 cells were plated in complete DMEN and incubated until confluency for 3 days. Medium was removed and complete DMEM containing Prolin (20 µg/ml) and ascorbic acid (10 µM) was added. […] Cells were further incubated for 72 hrs. 200 µl supernatant of 96-well SIRCOL plate was placed onto ELISA plate and incubated O/N. Next day, supernatant was removed and 100 ul of 1%BSA in PBST was added and incubated for 2 h at RT, BSA was removed, plate was washed 3x with 200 µl of PBST, and anti-collagen type I a.b was added at 1:2000 dilution (prepared in %1 BSA in PBST), incubated at RT for 1 h, primary a.b was removed, plate was washed 3x with 200 µl PBST, and secondary anti-goat HRP was added at 1:2000 dilution, incubate at RT for 1 h, removed, plate was washed 3x with 200 µl PBST and 100 µl of TMB solution was added for color development for 15 min, then 100 µl of 2 N H2SO4 was added to stop the reaction and O.D of developed yellow color was determined at 450 nm.

L929 cells [9] = assay: TGF-induced soluble fibronectin synthesis in L929 cells (ELISA); assay type: cell-based; settings: 500 µM, in the absence and presence of TGF-β-induction
Source text: Fibronectin is another important component of fibrotic lungs as it is induced by TGF-β and functions both as a structural component of extra cellular matrix as well as well as a ligand for integrin receptors. Just like soluble collagen, binding of fibronectin to integrin receptors induces the proliferation of fibroblast and epithelial cells of the lungs.

[10] = tested on: mouse tail model of lymphedema; assay: Mouse tail model of lymphedema; assay type: in vivo; settings: 400 mg/kg/day oral gavage once daily, by 5 weeks
[11] = human, in vivo, 48 h
Source text: Following screening, eligible healthy volunteer subjects were admitted to a single clinical study site and were randomized to 1 of 2 treatment sequences. […] In each period, a standardized breakfast was provided to subjects prior to administration of study drug (to compare the PK profiles in the clinically relevant fed state) and plasma samples were collected over a 48-hour period after dosing for evaluation of PK. Dosing between the 2 periods was separated by a minimum of 7 days. Subjects completed the study upon completion of the 48-hour post-dose assessments following dosing period 2.
All capsules were identical in size, shape, and external color.

[12] = MAD study, safety and tolerability (adverse events)
Source text: All participants in Part 1 and Part 2 will be monitored for safety (including assessment of chemistry, haematology and urinalysis parameters, electrocardiograms [ECGs], vital signs and adverse events [AEs]) and samples will be collected for assessment of PK at predefined time points pre and post-dose as delineated in the Schedule of Events.
Safety and tolerability will be assessed throughout Part 1, Part 2 and Part 3 of the study by monitoring AEs, physical examination, vital signs, 12-lead ECGs, clinical laboratory values (haematology panel, multiphasic chemistry panel and urinalysis), and review of concomitant treatments/medication use.

In the case of `O=C(O)c1ccc(=O)n(-c2ccccc2)c1` [LYT-105, 5-carboxy-pirfenidone], the “change in Cmax, AUC, fed vs fasted” value ([1]; 5-carboxypirfenidone after LYT-100 500 mg) is reported as less than 5%, the “average ratio of metabolite to the parent (M/P) by AUC” value [2] is reported as 0.45 and the “dose dependence of AUC96-108” value [2] is reported as “linear dose proportionality”. For the same compound, the “exposure in rats relative to humans” value [3] was roughly 7 fold and the “observed Cmax” value [4] was 1476.

For `[2H]C([2H])([2H])c1ccc(=O)n(-c2ccccc2)c1` [LYT-100, deupirfenidone], the “AUC, % Change Fed vs Fasted” value ([1]; LYT-100 @500 mg single dose) was -19%, the “Cmax, % Change Fed vs Fasted” value ([1]; LYT-100 @500 mg single dose) was -23% and the “Tmax, % Change Fed vs Fasted” value ([1]; LYT-100 @500 mg single dose) was “+25%”. For the same compound, the “tolerability with or without food” value ([1]; single dose of 500 mg) was “no evidence of any tolerability concerns”, the “Fibrosis Area (%)” value (NASH mice; 30 mg/kg twice daily oral, 6-9 weeks of age, n=8, mean ± SD, p<0.01 vs Vehicle) was 0.64 ± 0.31 % and the “fibrosis area compared to the vehicle group” value (NASH mice; Sirius-red stained liver sections) was “significant reduction”. For the same compound, the “number of animals with Steatosis score 0” value (NASH mice; score 0 = <5%, n=8) was 4, the “number of animals with Steatosis score 1” value (NASH mice; score 1 = 5-33%, n=8) was 3 and the “number of animals with Lobular Inflammation score 1” value (NASH mice; score 1 = <2 foci/200x, n=8) was 5. For the same compound, the “number of animals with Lobular Inflammation score 2” value (NASH mice; score 2 = 2-4 foci/200x, n=8) was 3, the “number of animals with Steatosis score 2” value (NASH mice; score 2 = >33%-66%, n=8) was 1 and the “number of animals with Hepatocyte ballooning score 2” value (NASH mice; score 2 = Many cells/prominent ballooning, n=8) was 8. For the same compound, the “survival of L929 cells” value (L929 cells [5]) was “does not affect survival”, the “collagen synthesis in the absence of added TGF-β” value (L929 cells [6]) was “significantly inhibits” and the TGF-induced collagen synthesis (L929 cells [6]; TGF-β 5 ng/ml, 72 hrs) was “inhibits”. The “total collagen level in the absence of TGF-β induction” value (L929 cells [7]) was “signficantly inhibited or reduced”, the “TGF-β-induced total collagen levels” value (L929 cells [7]; TGF-β 5 ng/ml, 72 hrs) was “significanly inhibited or reduced” and the “soluble collagen levels in the absence of TGF-β-induction” value (L929 cells [8]) was “signficantly reduced”. For the same compound, the “TGF-β-induced soluble collagen levels” value (L929 cells [8]; TGF-β 5 ng/ml, 72 hrs) was “significantly inhibits”, the soluble fibronectin levels (L929 cells [9]) was “signficantly reduced” and the “swelling (tail volume) as compared to carboxymethylcellulose control” value [10] was “significantly reduced swelling”. The “tolerability of single doses” value [11] was “well tolerated”, the “dose dependence of AUC96-108” value [2] was “linear dose proportionality” and the “abdominal discomfort, AE across all cohorts” value [12] was 6.7%. For the same compound, the “abdominal distension, AE across all cohorts” value [12] was 10%, the “headache, AE across all cohorts” value [12] was 23.3% and the “nausea, AE across all cohorts” value [12] was 10%. For the same compound, the “Abdominal Distension, incidence of TEAE” value ([12]; 100 mg BID, N=6) was 0 n (%), the “Abdominal discomfort, incidence of TEAE” value ([12]; 100 mg BID, N=6) was 0 n (%) and the “Back pain, incidence of TEAE” value ([12]; 100 mg BID, N=6) was 1 (16.7%) n (%). For the same compound, the “Dysmenorrhoea, incidence of TEAE” value ([12]; 100 mg BID, N=6) was 0 n (%), the “Headache, incidence of TEAE” value ([12]; 100 mg BID, N=6) was 1 (16.7%) n (%) and the “Nausea, incidence of TEAE” value ([12]; 100 mg BID, N=6) was 0 n (%). For the same compound, the “Peripheral swelling, incidence of TEAE” value ([12]; 100 mg BID, N=6) was 0 n (%), the “Presyncope, incidence of TEAE” value ([12]; 100 mg BID, N=6) was 0 n (%) and the tolerability ([12]; 100 mg up through 1000 mg BID over 5 days) was “well-tolerated”. The “Abdominal Distension, incidence of TEAE” value ([12]; 250 mg BID, N=6) was 3 (50.0%) n (%), the “Abdominal discomfort, incidence of TEAE” value ([12]; 250 mg BID, N=6) was 0 n (%) and the “Back pain, incidence of TEAE” value ([12]; 250 mg BID, N=6) was 0 n (%). The “Dysmenorrhoea, incidence of TEAE” value ([12]; 250 mg BID, N=6) was 2 (33.3%) n (%), the “Headache, incidence of TEAE” value ([12]; 250 mg BID, N=6) was 2 (33.3%) n (%) and the “Nausea, incidence of TEAE” value ([12]; 250 mg BID, N=6) was 2 (33.3%) n (%). For the same compound, the “Peripheral swelling, incidence of TEAE” value ([12]; 250 mg BID, N=6) was 1 (16.7%) n (%), the “Presyncope, incidence of TEAE” value ([12]; 250 mg BID, N=6) was 1 (16.7%) n (%) and the “Abdominal Distension, incidence of TEAE” value ([12]; 500 mg BID, N=6) was 0 n (%). The “Abdominal discomfort, incidence of TEAE” value ([12]; 500 mg BID, N=6) was 0 n (%), the “Back pain, incidence of TEAE” value ([12]; 500 mg BID, N=6) was 2 (33.3%) n (%) and the “Dysmenorrhoea, incidence of TEAE” value ([12]; 500 mg BID, N=6) was 0 n (%). For the same compound, the “Headache, incidence of TEAE” value ([12]; 500 mg BID, N=6) was 2 (33.3%) n (%), the “Nausea, incidence of TEAE” value ([12]; 500 mg BID, N=6) was 1 (16.7%) n (%) and the “Peripheral swelling, incidence of TEAE” value ([12]; 500 mg BID, N=6) was 0 n (%). For the same compound, the “Presyncope, incidence of TEAE” value ([12]; 500 mg BID, N=6) was 0 n (%), the “Abdominal Distension, incidence of TEAE” value ([12]; 750 mg BID, N=6) was 0 n (%) and the “Abdominal discomfort, incidence of TEAE” value ([12]; 750 mg BID, N=6) was 2 (33.3%) n (%). For the same compound, the “Back pain, incidence of TEAE” value ([12]; 750 mg BID, N=6) was 0 n (%), the “Dysmenorrhoea, incidence of TEAE” value ([12]; 750 mg BID, N=6) was 0 n (%) and the “Headache, incidence of TEAE” value ([12]; 750 mg BID, N=6) was 2 (33.3%) n (%). For the same compound, the “Nausea, incidence of TEAE” value ([12]; 750 mg BID, N=6) was 1 (16.7%) n (%), the “Peripheral swelling, incidence of TEAE” value ([12]; 750 mg BID, N=6) was 0 n (%) and the “Presyncope, incidence of TEAE” value ([12]; 750 mg BID, N=6) was 0 n (%). For the same compound, the “Abdominal Distension, incidence of TEAE” value ([12]; 1000 mg BID, N=6) was 1 (16.7%) n (%), the “Abdominal discomfort, incidence of TEAE” value ([12]; 1000 mg BID, N=6) was 0 n (%) and the “Back pain, incidence of TEAE” value ([12]; 1000 mg BID, N=6) was 0 n (%). The “Dysmenorrhoea, incidence of TEAE” value ([12]; 1000 mg BID, N=6) was 0 n (%), the “Headache, incidence of TEAE” value ([12]; 1000 mg BID, N=6) was 2 (33.3%) n (%) and the “Nausea, incidence of TEAE” value ([12]; 1000 mg BID, N=6) was 0 n (%). The “Peripheral swelling, incidence of TEAE” value ([12]; 1000 mg BID, N=6) was 1 (16.7%) n (%), the “Presyncope, incidence of TEAE” value ([12]; 1000 mg BID, N=6) was 1 (16.7%) n (%) and the “participants with TEAEs considered at least possibly treatment-related” value ([12]; 15 of 30 participants treated with LYT-100) was 50.0%. The dose-limiting toxicities ([12]; 100 to 1000 mg BID, 5 days) was “No dose-limiting toxicities were observed”, the maximum tolerated dose ([12]; 100 to 1000 mg BID, 5 days) was “No maximum tolerated dose was reached; also recorded: no maximally tolerated dose was reached” and the “severity of adverse events at all doses” value ([12]; MAD study) was “mild and transient”. The “Abdominal Distension, incidence of TEAE” value ([12]; Overall LYT-100, N=30) was 4 (13.3%) n (%), the “Abdominal discomfort, incidence of TEAE” value ([12]; Overall LYT-100, N=30) was 2 (6.7%) n (%) and the “Back pain, incidence of TEAE” value ([12]; Overall LYT-100, N=30) was 3 (10.0%) n (%). For the same compound, the “Dysmenorrhoea, incidence of TEAE” value ([12]; Overall LYT-100, N=30) was 2 (6.7%) n (%), the “Headache, incidence of TEAE” value ([12]; Overall LYT-100, N=30) was 9 (30.0%) n (%) and the “Nausea, incidence of TEAE” value ([12]; Overall LYT-100, N=30) was 4 (13.3%) n (%). The “Peripheral swelling, incidence of TEAE” value ([12]; Overall LYT-100, N=30) was 2 (6.7%) n (%) and the “Presyncope, incidence of TEAE” value ([12]; Overall LYT-100, N=30) was 2 (6.7%) n (%).
